In patent publication US11192866B2, “Synthesis of tetracyclines and analogues thereof” (President and Fellows of Harvard College, priority 2004, dated 2021):

Tested on: Gram-positive strains
Assay: Whole-cell antibacterial MIC assay (NCCLS serial dilution), Gram-positive strains
Assay type: cell-based
Settings: each of the Gram-positive strains examined, including strains with resistance to tetracycline, methicillin, and vancomycin
Procedure: The efficiencies of the synthetic sequences have allowed for the preparation of sufficient quantities of each tetracycline analog for antibacterial testing using standard serial-dilution techniques (5-20 mg amounts). Minimum inhibitory concentrations (MICs) are reported for each analog in whole-cell antimicrobial assays using five Gram-positive and five Gram-negative organisms (FIGS. 18A to 18C).
Whole-cell antibacterial activity was determined according to methods recommended by the NCCLS (National Committee for Clinical Laboratory Standards. 2002. Methods for dilution antimicrobial susceptibility tests for bacteria that grow aerobically: approved standard-fifth edition. NCCLS document M100-S12. National Committee for Clinical Laboratory Standards. Wayne, Pa.; incorporated herein by reference). Test compounds were dissolved in dimethyl sulfoxide (DMSO) and the resulting solutions were diluted in water (1:10) to produce stock solutions with a final concentration of 256 μg tetracycline analog per mL. In a 96-well microtiter plate, 50-μL aliquots of stock solutions were diluted serially into cation-adjusted Mueller-Hinton broth (MHB; Becton-Dickinson, Cockeysville, Md.). Test organisms (50 μL aliquots of solutions […]) were then added to the appropriate wells of the microtiter plate. […] The MIC was the lowest concentration of compound determined to inhibit visible growth. […]

Compound: CN(C)[C@@H]1C(O)=C(C(N)=O)C(=O)[C@@]2(O)C(O)=C3C(=O)c4c(cc5ccccc5c4O)C[C@H]3C[C@@H]12 [pentacycline derivative 6]
- antibacterial activity compared with tetracycline: activity equal to or greater than tetracycline
